In US20200376005A1, “SHIP INHIBITION TO COMBAT OBESITY” (THE RESEARCH FOUNDATION FOR THE STATE UNIVERSITY OF NEW YORK, priority 2013, published 2020):
Entries after “also recorded” stand apart in the source; their conditions may differ.

How the values were obtained:
SHIP1 = biological target: T1, SHIP1 (Homo sapiens, UniProt Q92835); assay: SHIP1 Malachite Green phosphatase assay; format: biochemical; conditions: for SHIP1 inhibitory activity (in words): Malachite Green phosphate release assay, compared with 3AC
T1 sequence (Q92835 1-1189): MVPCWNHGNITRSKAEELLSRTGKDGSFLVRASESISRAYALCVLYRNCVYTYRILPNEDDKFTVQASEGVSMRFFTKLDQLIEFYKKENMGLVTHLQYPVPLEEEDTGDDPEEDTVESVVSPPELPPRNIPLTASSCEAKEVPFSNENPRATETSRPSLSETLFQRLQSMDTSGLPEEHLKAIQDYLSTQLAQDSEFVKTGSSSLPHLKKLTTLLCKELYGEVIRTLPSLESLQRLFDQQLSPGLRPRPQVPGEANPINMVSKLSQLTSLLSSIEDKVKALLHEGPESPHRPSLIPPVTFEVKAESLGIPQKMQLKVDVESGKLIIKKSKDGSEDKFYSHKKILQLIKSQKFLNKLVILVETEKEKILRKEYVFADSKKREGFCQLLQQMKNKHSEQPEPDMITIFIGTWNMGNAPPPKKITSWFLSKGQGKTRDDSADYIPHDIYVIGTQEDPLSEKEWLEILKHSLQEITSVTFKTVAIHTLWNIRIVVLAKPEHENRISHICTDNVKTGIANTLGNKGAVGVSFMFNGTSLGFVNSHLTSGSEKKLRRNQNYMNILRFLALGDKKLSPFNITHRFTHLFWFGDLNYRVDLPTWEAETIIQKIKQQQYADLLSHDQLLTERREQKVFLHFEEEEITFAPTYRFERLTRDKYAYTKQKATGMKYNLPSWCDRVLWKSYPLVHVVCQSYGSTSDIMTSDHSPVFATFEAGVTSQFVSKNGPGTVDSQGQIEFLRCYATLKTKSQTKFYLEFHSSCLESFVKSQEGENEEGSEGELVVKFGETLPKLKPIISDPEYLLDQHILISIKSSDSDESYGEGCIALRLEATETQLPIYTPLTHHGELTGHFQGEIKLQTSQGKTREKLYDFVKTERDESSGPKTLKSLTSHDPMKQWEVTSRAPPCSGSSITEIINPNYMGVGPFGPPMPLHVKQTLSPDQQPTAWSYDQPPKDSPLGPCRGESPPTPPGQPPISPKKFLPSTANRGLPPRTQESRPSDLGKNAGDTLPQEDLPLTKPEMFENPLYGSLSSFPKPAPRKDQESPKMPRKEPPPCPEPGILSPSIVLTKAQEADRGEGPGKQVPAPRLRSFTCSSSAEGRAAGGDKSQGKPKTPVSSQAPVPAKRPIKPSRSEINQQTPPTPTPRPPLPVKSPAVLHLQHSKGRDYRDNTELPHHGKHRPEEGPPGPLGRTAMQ
Procedure: The standard protocol for measuring SHIP inhibition activity was conducted as described in the materials section of Brooks, R., Fuhler, G. M., Iyer, S., Smith, M. J., Park, M. Y., Paraiso, K. H., Engelman, R. W., and Kerr, W. G., “SHIP1 inhibition increases immunoregulatory capacity and triggers apoptosis of hematopoietic cancer cells,” J Immunol 184:3582-3589 (2010), which is incorporated herein by reference, which protocol is described in pertinent part as follows: Malachite Green Assay was obtained from Echelon Biosciences. Malachite Green forms a colored complex with free phosphate liberated by the SHIP1, SHIP2, or PTEN enzyme reactions. The assay was performed according to manufacturer's protocol. The 3a-aminocholestane (3AC) was dissolved in 100% ethanol and used at a final concentration of 1 mM in the Malachite Green assay.

MIR cell = MIR cell induction in treated mice; conditions: in vivo; for concentration inducing a comparable MIR cell increase: mice
Procedure: [Moto bene: DRV-IV-26=3A5AS].
The solubility of 3AC was assessed by calculating the distribution coefficient (CLogD). This calculation estimates the CLogD for 3AC at 7.17 indicating the molecule is very lipophilic. Thus, we have begun to develop novel 3AC analogs with increased aqueous solubility. One of these compounds, 3A5AS, has a CLogD of 3.33. Lipinski's rules (a common measure of small molecule pharmacokinetics) recommend a ClogD of <5 for in vivo applications.

[1] = cited reference 3 of Example 22; cited from earlier work
[2] = 3AC treatment of aged C57BL/6 mice, fasting blood glucose and insulin; format: in vivo; conditions: after 1 month treatment
Procedure: We noted that mutation of the SHIP1 paralog, SHIP2, also promotes resistance to diet-induced obesity and diabetes^2 We hypothesized then that treatment of adult or aging mice with a pan-SHIP1/2 inhibitor, 3AC^3,4, (SHIPi) might reduce body fat content. This was then tested by pulsatile SHIPi treatment of aged C57BL/6 mice that have begun to accumulate excess body fat and then assessing their body fat content via whole body DEXA imaging. […] This analysis confirmed that small molecule targetting of SHIP1/2 in vivo is a feasible approach to reverse the accumulation of excess body fat and glucose homeostasis during aging.

[3] = 3-point bending test and microCT of femurs of 3AC treated mice; format: in vivo
Procedure: Mouse femurs were cleaned, wrapped in PBS-soaked gauze and frozen at […]. Femurs were rehydrated in a PBS solution at room temperature for 2 hours before testing. We employed a 3-point-bending test to assay the biomechanical properties of femurs treated with the 3AC inhibitor. Femurs were placed into a testing frame (1250 N Load Cell and a Q Test 1/L, MTS Systems Corp, Eden Prairie, Minn.), pre-loaded with 1 N and then loaded at 1 N/mm until failure. Prior to testing femurs were scanned using microCT to assay the geometric properties.

[4] = 3AC treatment of adult C57BL6/J mice (DEXA, microCT, serum ELISA); format: in vivo; conditions: vs vehicle, hydrochloride
immunoregulatory cells = assay: Oral administration of K118 in mice, immunoregulatory cells by flow cytometry
[5] = K118/K189 treatment of DIO mice on high fat diet (Example 21); conditions: for % body fat: DIO mice on 60% fat diet, 10 mg/kg 2x/week, 1 month, vs pre-treatment
Source text: DIO mice are fed a diet that includes both high quantities of fat as well as sugar. […] DIO mice were purchased from Jackson labs at 12 weeks of age. […] After 1 month on the high fat diet we examined % body fat, (FIG. 28) weight, (FIG. 29) and BMD (FIG. 30).

[6] = K118 treatment of DIO mice on high caloric diet (Example 22); format: in vivo
Procedure: ; As before K118 treatment was performed for one month. After K118 or vehicle treatment we examined weight, (FIG. 35A-C) food intake, (FIG. 35D) gross comparison of fat depots, (FIG. 35E) % body fat, (FIG. 35F) BMD and BMC (FIG. 38A,B). […]. (FIG. 35A,B) The vehicle group retained or increased their body mass during the one month study (FIG. 35C). The weight difference between the K118- and vehicle-treated mice was readily apparent upon visual examination of the mice (FIG. 35C). […]. Obesity is a complex metabolic disorder that predisposes individuals to several co-morbidities, such as type 2 diabetes mellitus. DIO mice are a well-studied model to of diet-related obesity and its leading co-morbidity, type 2 diabetes^12,13. […]. We measured fasting and ad libitum blood glucose and insulin levels and performed the intraperitoneal glucose tolerance test (IGTT) on fasted DIO mice. […]. After 1 month we examined fasting and ad libitum blood glucose, (FIG. 36A-B) fasting and ad libitum insulin, (FIG. 36C-D) the fasting and ad libitum insulin:glucose ratio, (FIG. 36E) and IGTT on fasted DIO mice (FIG. 36F). […]. (FIG. 36A-B). […].

[7] = K118/K189 treatment of 9-12 month old mice (Example 21); conditions: aged mice, 10 mg/kg i.p. two times per week, 4 weeks, hydrochloride
Source text: After one month we monitored body weight, % body fat and bone mineral density (BMD) in all groups.

[8] = Solubility in water / delivery solution; conditions: 100% H2O; hydrochloride
[9] = Pulsatile K118 treatment of aged male and female C57BL/6 mice (Example 22); format: in vivo
[10] = aging C57BL/6 mice of both sexes, 2x/week, 10 mg/kg, 1 month

Compound: C[C@@]12CCC[C@H]1[C@@H]1CC[C@H]3C[C@H](N)CC[C@]3(C)[C@H]1CC2 [3A5AS, 3α-amino-5α-androstane]
- SHIP1 inhibitory activity (in words) (SHIP1): equally potent; also recorded: retains equal inhibitory activity
- concentration inducing a comparable MIR cell increase (MIR cell): 15 µM
- potency at inducing MIR cell numbers (MIR cell; compared with 3AC): more potent

Compound: CC(C)CCC[C@@H](C)[C@H]1CC[C@H]2[C@@H]3CCC4C[C@H](N)CC[C@]4(C)[C@H]3CC[C@]12C.Cl (stereo partly drawn) [3AC, 3α-Aminocholestane hydrochloride]
- aqueous solubility [1]: poor aqueous solubility
- fasting blood glucose [2]: significant decrease
- insulin [2]: significant decrease
- energy to fracture ([3]; 3-point bend): not observed to be significantly different
- energy to peak ([3]; 3-point bend): not observed to be significantly different
- decrease in the peak load ([3]; femurs of 3AC treated mice, 3-point bend, p<0.01): 15.4%
- decrease in the stiffness ([3]; femurs of 3AC treated mice, 3-point bend, p<0.04): 21.6%
- cortical thickness in the femurs ([3]; mid-shaft microCT): significant decreases
- whole-body BMD ([4]; DEXA, 25 mg/kg i.p. three times per week, 4, 8 and 16 weeks, 25 mg/kg): significantly reduces; also recorded: Significant decrease
- percent body fat ([4]; DEXA, aging mice, 25 mg/kg three times per week, 25 mg/kg): significantly reduced; also recorded: Significant decrease
- serum OPG ([4]; ELISA): significantly increases; also recorded: increased
- serum RANKL ([4]; ELISA): decreased
- bone mass (Bv/Tv) ([4]; microCT metaphysis, 25 mg/kg i.p. three times per week, 25 mg/kg): significantly reduces; also recorded: significantly decreased
- concentration inducing a comparable MIR cell increase (MIR cell): 60 µM

Compound: C[C@@]12CCC[C@H]1[C@@H]1CC[C@H]3C[C@@H](N)CC[C@]3(C)[C@H]1CC2.Cl [K118, 3βAmino-5α-androstane hydrochloride]
- oral bioavailability (immunoregulatory cells; delivered orally, 10 mg/kg, preliminary studies): bioavailable
- neutrophil numbers (immunoregulatory cells; oral 10 mg/kg, hydrochloride, 10 mg/kg): trend for increased; also recorded: Increase
- frequency of natural T regulatory cells (nTreg, CD4+CD25+FoxP3+) (immunoregulatory cells; spleen and mesenteric lymph node, oral 10 mg/kg): Significant increases
- frequency of myeloid derived suppressor cells (MDSC, Gr1 and Mac1) (immunoregulatory cells; spleen, oral 10 mg/kg): significant increase
- % body fat ([5]; hydrochloride): significantly lower; also recorded: reverses diet-induced obesity
- weight gain ([5]; DIO mice on high fat diet, 1 month treatment, hydrochloride): did not significantly gain weight; also recorded: prevents diet-induced weight gain
- body fat in individual mice ([5]; all K118 treated mice, one month): reduced body fat
- mice that lost weight ([5]; individual mice of the K118 group, one month): 3 out of 4
- BMD ([5]; young mice on a high fat diet, hydrochloride): did not adversely impact; also recorded: does not cause a significant reduction
- SHIP1 inhibitory activity (in words) (SHIP1; hydrochloride): comparable SHIP1 inhibitory activity; also recorded: significant SHIP1 inhibitory activity
- inhibition at 1000 µM (SHIP1; at 1 mM, tested in triplicate): 59%
- BMD or BMC ([6]; C57BL6 mice on a HCD, hydrochloride): did not adversely impact; also recorded: does not affect
- body weight ([6]; DIO mice on HCD, 2x/week, 10 mg/kg, one month, vs pre-treatment and vehicle): lost a significant amount of body weight
- percent body fat ([6]; DIO mice, vs pre-treatment and vehicle): significantly lower
- insulin:glucose ratio ([6]; DIO mice, vs vehicle): significant decrease
- leptin production ([6]; HCD mice): reduced leptin production
- total cholesterol levels in the serum ([6]; HCD mice): reduced total cholesterol levels
- glucose tolerance (IGTT) ([6]; fasted DIO mice, vs vehicle): improved glucose tolerance
- blood glucose levels ([6]; fasting and ad libitum, DIO mice, vs pre-treatment and vehicle): significantly reduced
- serum insulin levels ([6]; fasting and ad libitum, DIO mice, vs vehicle): significantly lower
- fat depot storage ([6]; gross comparison, DIO mice): visibly less fat depot storage
- BMD [7]: does not significantly reduce
- body fat [7]: quite effective at reducing; also recorded: reduces
- body mass (weight) [7]: quite effective at reducing; also recorded: reduces
- solubility in water [8]: water-soluble; also recorded: water soluble
- morbidity or mortality ([9]; K118 treated mice): no significant morbidity or mortality
- BMD ([9]; aged male and female mice, hydrochloride): does not significantly reduce; also recorded: does not affect
- bone mineral content (BMC) ([9]; aged mice, one month pulsatile treatment, hydrochloride): normal bone density and mineral content; also recorded: does not affect
- body fat [9, 10]: quite effective at reducing
- body mass (weight) [9, 10]: quite effective at reducing
- inflammation / lesions in lungs and small intestine (ileum) ([9]; histology, one month pulsatile treatment, hydrochloride): lacked any evidence of inflammation; also recorded: no significant lesions

Compound: C[C@@]12CCC[C@H]1[C@@H]1CC[C@H]3C[C@@H](O)CC[C@]3(C)[C@H]1CC2 [K189, 3β-Hydroxy-5α-androstane, reference compound]
- % body fat [5]: did not show a significant reduction
- SHIP1 inhibitory activity (in words) (SHIP1): significant SHIP1 inhibitory activity is lost; also recorded: does not have significant SHIP1 inhibitory activity
